# Experimental data reported in ChEMBL document CHEMBL1944631, “Solid-state NMR analysis of calcium and d-mannose binding of BMY-28864, a water-soluble analogue of pradimicin A” (Bioorg Med Chem Lett, 2012).
# Active and inactive are the calls of the source. The rule behind the calls is not given here.
# Legend:
# [1] = Solubility of the compound in phosphate buffered saline at pH 7.4; assay type: physicochemical
# [2] = Binding affinity to [13C6]-methyl alpha-D-mannopyranoside by 2-DDARR in presence of Ca2+ relative to TMS
# [3] = Binding affinity to methyl alpha-D-mannopyranoside at -129 ppm by Solid-state CP/MAS 113Cd NMR spectroscopy
# [4] = Binding affinity to methyl alpha-D-mannopyranoside at -135 ppm by Solid-state CP/MAS 113Cd NMR spectroscopy
solubility [1] [µg/mL],Activity [2],Activity [3],Activity [4],SMILES
260,–,–,–,CN[C@@H]1[C@H](O[C@@H]2OC[C@@H](O)[C@H](O)[C@H]2O)[C@@H](O)[C@H](O[C@H]2c3cc(C)c(C(=O)N[C@H](CO)C(=O)O)c(O)c3-c3c(cc4c(c3O)C(=O)c3cc(OC)cc(O)c3C4=O)[C@@H]2O)O[C@@H]1C
> 20000,Active,Active,–,COc1cc(O)c2c(c1)C(=O)c1c(cc3c(c1O)-c1c(cc(C)c(C(=O)N[C@H](CO)C(=O)O)c1O)[C@H](O[C@@H]1O[C@H](C)[C@H](N(C)C)[C@H](O[C@@H]4OC[C@@H](O)[C@H](O)[C@H]4O)[C@H]1O)[C@H]3O)C2=O
20,Active,–,Active,CN[C@@H]1[C@H](O[C@@H]2OC[C@@H](O)[C@H](O)[C@H]2O)[C@@H](O)[C@H](O[C@H]2c3cc(C)c(C(=O)N[C@H](C)C(=O)O)c(O)c3-c3c(cc4c(c3O)C(=O)c3cc(OC)cc(O)c3C4=O)[C@@H]2O)O[C@@H]1C [PRADIMICIN A]
